Reference: ChEMBL document CHEMBL5512640, “Discovery of novel itaconimide-based derivatives as potent HDAC inhibitors for the efficient treatment of prostate cancer” (Eur J Med Chem, 2024)
Active and inactive are the calls of the source. No cut-off for these calls is given here.

Experiments:
Histone deacetylase 1 = Histone deacetylase 1 (Homo sapiens, UniProt Q13547); assay: Inhibition of human HDAC1 incubated for 10 mins followed by fluorogenic substrate addition by fluorescence based analysis
DU-145 [1] = assay: Antiproliferative activity against human DU-145 cells incubated for 96 hrs by MTT assay; type: functional, cell-based; conditions: DU-145, 96 h
PC-3 = assay: Antiproliferative activity against human PC-3 cells incubated for 96 hrs by MTT assay; type: functional, cell-based; conditions: PC-3, 96 h
A549 = assay: Antiproliferative activity against human A549 cells incubated for 96 hrs by MTT assay; type: functional, cell-based; conditions: A549, 96 h
NCI-H1650 = assay: Antiproliferative activity against human NCI-H1650 cells incubated for 96 hrs by MTT assay; type: functional, cell-based; conditions: NCI-H1650, 96 h
MCF7 = assay: Antiproliferative activity against human MCF7 cells incubated for 96 hrs by MTT assay; type: functional, cell-based; conditions: MCF7, 96 h
MDA-MB-231 = assay: Antiproliferative activity against human MDA-MB-231 cells incubated for 96 hrs by MTT assay; type: functional, cell-based; conditions: MDA-MB-231, 96 h
HCT-116 = assay: Antiproliferative activity against human HCT-116 cells incubated for 96 hrs by MTT assay; type: functional, cell-based; conditions: HCT-116, 96 h
Histone deacetylase 2 = Histone deacetylase 2 (Homo sapiens, UniProt Q92769); assay: Inhibition of human HDAC2 incubated for 10 mins followed by fluorogenic substrate addition by fluorescence based analysis
Histone deacetylase 3 = Histone deacetylase 3 (Homo sapiens, UniProt O15379); assay: Inhibition of human HDAC3 incubated for 10 mins followed by fluorogenic substrate addition by fluorescence based analysis
Histone deacetylase 4 = Histone deacetylase 4 (Homo sapiens, UniProt P56524); assay: Inhibition of human HDAC4 incubated for 10 mins followed by fluorogenic substrate addition by fluorescence based analysis
Histone deacetylase 7 = Histone deacetylase 7 (Homo sapiens, UniProt Q8WUI4); assay: Inhibition of human HDAC7 incubated for 10 mins followed by fluorogenic substrate addition by fluorescence based analysis
Histone deacetylase 8 = Histone deacetylase 8 (Homo sapiens, UniProt Q9BY41); assay: Inhibition of human HDAC8 incubated for 10 mins followed by fluorogenic substrate addition by fluorescence based analysis
Histone deacetylase 9 = Histone deacetylase 9 (Homo sapiens, UniProt Q9UKV0); assay: Inhibition of human HDAC9 incubated for 10 mins followed by fluorogenic substrate addition by fluorescence based analysis
[2] = molecular target: Polyamine deacetylase HDAC10 (Homo sapiens, UniProt Q969S8); assay: Inhibition of human HDAC10 incubated for 10 mins followed by fluorogenic substrate addition by fluorescence based analysis
DU-145 [3] = assay: Inhibition of colony formation in human DU-145 cells assessed as suppression of colony formation measured after 2 weeks by crystal violet staining based analysis; type: functional, cell-based; conditions: dose 0.4-3.2 µM
DU-145 [4] = assay: Inhibition of colony formation in human DU-145 cells assessed as suppression of colony formation at 3.2 uM measured after […] by crystal violet staining based analysis relative to control; type: functional
DU-145 [5] = assay: Induction of apoptosis in human DU-145 cells measured after 72 hrs by annexin V-FITC and PI staining based flow cytometry analysis; type: functional, cell-based; conditions: dose 0.4-1.6 µM
DU-145 [6] = assay: Induction of apoptosis in human DU-145 cells assessed as apoptotic rate at 0.8 uM measured after 72 hrs by annexin V-FITC and PI staining based flow cytometry analysis (reference value: 3.41%); type: functional
DU-145 [7] = assay: Upregulation of Ac-H3 level in human DU-145 cells incubated for 24 hrs by Western blot analysis; type: functional, cell-based; conditions: dose 0.8-3.2 µM
DU-145 [8] = assay: Downregulation of HDAC6 expression in human DU-145 cells at 0.8 uM incubated for 24 hrs by Western blot analysis; type: functional, cell-based
[9] = Half life in Sprague-Dawley rat at 2 mg/kg, iv measured upto 24 hrs by LC-MS/MS analysis; type: ADME, organism-based; conditions: in vivo
[10] = Clearance in Sprague-Dawley rat at 2 mg/kg, iv measured upto 24 hrs by LC-MS/MS analysis; type: ADME, organism-based; conditions: in vivo
[11] = Cmax in Sprague-Dawley rat at 2 mg/kg, iv measured upto 24 hrs by LC-MS/MS analysis; type: ADME, organism-based; conditions: in vivo
[12] = AUC (0 to infinity) in Sprague-Dawley rat at 10 mg/kg, po measured upto 24 hrs by LC-MS/MS analysis; type: ADME, organism-based; conditions: in vivo
[13] = Half life in Sprague-Dawley rat at 10 mg/kg, po measured upto 24 hrs by LC-MS/MS analysis; type: ADME, organism-based; conditions: in vivo
[14] = Cmax in Sprague-Dawley rat at 10 mg/kg, po measured upto 24 hrs by LC-MS/MS analysis; type: ADME, organism-based; conditions: in vivo
[15] = Oral bioavailability in Sprague-Dawley rat at 10 mg/kg measured upto 24 hrs by LC-MS/MS analysis; type: ADME, organism-based; conditions: in vivo
[16] = Acute toxicity in male Sprague-Dawley rat assessed as effect on body weight at 500 to 4500 mg/kg, po measured every 3 days for 15 days; type: organism-based; conditions: in vivo, 360 h, dose 500-4500 mg/kg, time 15 day
[17] = Acute toxicity in female Sprague-Dawley rat assessed as effect on body weight at 500 to 4500 mg/kg, po measured every 3 days for 15 days; type: organism-based; conditions: in vivo, 360 h, dose 500-4500 mg/kg, time 15 day
[18] = Acute toxicity in Sprague-Dawley rat assessed as effect on heart at 500 to 4500 mg/kg, po measured after 15 days; type: organism-based; conditions: in vivo, 360 h, dose 500-4500 mg/kg, time 15 day
[19] = Acute toxicity in Sprague-Dawley rat assessed as effect on spleen at 500 to 4500 mg/kg, po measured after 15 days; type: organism-based; conditions: in vivo, 360 h, dose 500-4500 mg/kg, time 15 day
[20] = Acute toxicity in Sprague-Dawley rat assessed as effect on lung at 500 to 4500 mg/kg, po measured after 15 days; type: organism-based; conditions: in vivo, 360 h, dose 500-4500 mg/kg, time 15 day
[21] = Acute toxicity in Sprague-Dawley rat assessed as effect on kidney at 500 to 4500 mg/kg, po measured after 15 days; type: organism-based; conditions: in vivo, 360 h, dose 500-4500 mg/kg, time 15 day
DU-145 [22] = assay: animal or person; type: functional, Homo sapiens; conditions: Mus musculus, DU-145, 960 h, route po, time 40 day, read-out: TGI
Description: Antitumor activity against human DU-145 cells xenografted in Balb/c nude mouse model assessed as tumor growth inhibition at 100 mg/kg, po administered once daily for 40 days relative to control

DU-145 [23] = assay: Antitumor activity against human DU-145 cells xenografted in Balb/c nude mouse model assessed as tumor growth inhibition at high dose administered as po once daily for 40 days relative to control; type: functional; conditions: time 40 day
[24] = Toxicity in Balb/c mouse assessed as effect on body weight at 100 to 200 mg/kg, po measured upto 40 days; type: organism-based; conditions: in vivo, 960 h, dose 100-200 mg/kg, time < 40 day
[25] = Toxicity in Balb/c mouse assessed as effect on body weight at 100 mg/kg, po measured upto 40 days in presence of docetaxel; type: organism-based; conditions: in vivo, 960 h, time < 40 day
DU-145 [26] = assay: Antitumor activity against human DU-145 cells xenografted in Balb/c nude mouse model assessed as tumor growth inhibition at 200 mg/kg, po administered once daily for 40 days in presence of docetaxel relative to control; type: functional; conditions: DU-145, 960 h, time 40 day, read-out: TGI
DU-145 [27] = assay: Antitumor activity against human DU-145 cells xenografted in Balb/c nude mouse model assessed as tumor growth inhibition at 100 mg/kg, po administered once daily for 40 days in presence of docetaxel relative to control; type: functional; conditions: DU-145, 960 h, time 40 day, read-out: TGI

Sequence of Histone deacetylase 9 (Q9UKV0 whole entry): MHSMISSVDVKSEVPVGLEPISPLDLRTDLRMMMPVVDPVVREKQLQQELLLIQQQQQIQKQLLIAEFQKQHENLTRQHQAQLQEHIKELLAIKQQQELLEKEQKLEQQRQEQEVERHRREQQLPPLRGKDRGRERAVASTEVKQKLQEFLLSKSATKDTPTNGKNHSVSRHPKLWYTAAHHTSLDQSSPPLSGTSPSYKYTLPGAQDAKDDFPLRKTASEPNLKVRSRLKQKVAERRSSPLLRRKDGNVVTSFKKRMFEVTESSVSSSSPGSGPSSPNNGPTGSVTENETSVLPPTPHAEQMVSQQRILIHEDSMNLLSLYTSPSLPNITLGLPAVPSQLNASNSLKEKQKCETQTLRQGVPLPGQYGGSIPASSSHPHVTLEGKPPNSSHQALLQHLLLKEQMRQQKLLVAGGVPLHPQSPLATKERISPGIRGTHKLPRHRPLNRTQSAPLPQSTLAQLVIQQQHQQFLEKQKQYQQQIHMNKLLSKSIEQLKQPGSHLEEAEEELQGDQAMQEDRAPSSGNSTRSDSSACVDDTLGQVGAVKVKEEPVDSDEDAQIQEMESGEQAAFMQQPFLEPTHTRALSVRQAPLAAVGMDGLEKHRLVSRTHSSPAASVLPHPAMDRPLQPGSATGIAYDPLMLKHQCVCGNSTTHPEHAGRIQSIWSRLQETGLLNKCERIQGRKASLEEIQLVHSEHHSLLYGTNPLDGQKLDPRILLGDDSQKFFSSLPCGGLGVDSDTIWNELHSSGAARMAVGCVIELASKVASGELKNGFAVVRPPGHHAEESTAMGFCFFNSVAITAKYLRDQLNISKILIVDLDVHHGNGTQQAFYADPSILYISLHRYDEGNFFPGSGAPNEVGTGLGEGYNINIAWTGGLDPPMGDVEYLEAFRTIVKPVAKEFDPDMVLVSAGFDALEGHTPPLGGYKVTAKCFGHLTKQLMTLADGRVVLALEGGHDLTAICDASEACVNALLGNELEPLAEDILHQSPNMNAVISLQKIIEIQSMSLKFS
Sequence of Histone deacetylase 1 (Q13547 whole entry): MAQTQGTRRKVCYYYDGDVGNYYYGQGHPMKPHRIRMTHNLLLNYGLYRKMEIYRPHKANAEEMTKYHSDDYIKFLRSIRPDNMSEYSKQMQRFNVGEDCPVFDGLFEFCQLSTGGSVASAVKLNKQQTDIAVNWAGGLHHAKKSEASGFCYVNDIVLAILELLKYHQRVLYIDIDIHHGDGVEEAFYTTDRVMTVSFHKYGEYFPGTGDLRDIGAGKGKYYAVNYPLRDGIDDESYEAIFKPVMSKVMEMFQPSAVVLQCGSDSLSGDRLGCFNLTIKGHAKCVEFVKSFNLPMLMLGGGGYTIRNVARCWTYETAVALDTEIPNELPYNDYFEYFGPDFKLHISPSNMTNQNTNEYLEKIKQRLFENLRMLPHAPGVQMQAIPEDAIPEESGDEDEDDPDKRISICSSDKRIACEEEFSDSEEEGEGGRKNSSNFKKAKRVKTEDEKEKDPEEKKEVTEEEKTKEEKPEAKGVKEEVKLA
Sequence of Histone deacetylase 8 (Q9BY41 whole entry): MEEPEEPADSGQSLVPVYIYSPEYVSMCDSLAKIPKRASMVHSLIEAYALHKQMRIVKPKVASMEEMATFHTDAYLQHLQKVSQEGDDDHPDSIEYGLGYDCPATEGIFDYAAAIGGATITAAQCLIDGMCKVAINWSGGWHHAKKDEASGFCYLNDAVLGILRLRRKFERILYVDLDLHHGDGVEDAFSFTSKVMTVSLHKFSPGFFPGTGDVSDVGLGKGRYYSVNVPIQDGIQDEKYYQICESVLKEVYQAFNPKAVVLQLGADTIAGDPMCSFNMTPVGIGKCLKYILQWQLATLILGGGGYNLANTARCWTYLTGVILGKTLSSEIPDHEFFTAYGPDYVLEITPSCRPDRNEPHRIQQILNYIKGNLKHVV
Sequence of Histone deacetylase 4 (P56524 whole entry): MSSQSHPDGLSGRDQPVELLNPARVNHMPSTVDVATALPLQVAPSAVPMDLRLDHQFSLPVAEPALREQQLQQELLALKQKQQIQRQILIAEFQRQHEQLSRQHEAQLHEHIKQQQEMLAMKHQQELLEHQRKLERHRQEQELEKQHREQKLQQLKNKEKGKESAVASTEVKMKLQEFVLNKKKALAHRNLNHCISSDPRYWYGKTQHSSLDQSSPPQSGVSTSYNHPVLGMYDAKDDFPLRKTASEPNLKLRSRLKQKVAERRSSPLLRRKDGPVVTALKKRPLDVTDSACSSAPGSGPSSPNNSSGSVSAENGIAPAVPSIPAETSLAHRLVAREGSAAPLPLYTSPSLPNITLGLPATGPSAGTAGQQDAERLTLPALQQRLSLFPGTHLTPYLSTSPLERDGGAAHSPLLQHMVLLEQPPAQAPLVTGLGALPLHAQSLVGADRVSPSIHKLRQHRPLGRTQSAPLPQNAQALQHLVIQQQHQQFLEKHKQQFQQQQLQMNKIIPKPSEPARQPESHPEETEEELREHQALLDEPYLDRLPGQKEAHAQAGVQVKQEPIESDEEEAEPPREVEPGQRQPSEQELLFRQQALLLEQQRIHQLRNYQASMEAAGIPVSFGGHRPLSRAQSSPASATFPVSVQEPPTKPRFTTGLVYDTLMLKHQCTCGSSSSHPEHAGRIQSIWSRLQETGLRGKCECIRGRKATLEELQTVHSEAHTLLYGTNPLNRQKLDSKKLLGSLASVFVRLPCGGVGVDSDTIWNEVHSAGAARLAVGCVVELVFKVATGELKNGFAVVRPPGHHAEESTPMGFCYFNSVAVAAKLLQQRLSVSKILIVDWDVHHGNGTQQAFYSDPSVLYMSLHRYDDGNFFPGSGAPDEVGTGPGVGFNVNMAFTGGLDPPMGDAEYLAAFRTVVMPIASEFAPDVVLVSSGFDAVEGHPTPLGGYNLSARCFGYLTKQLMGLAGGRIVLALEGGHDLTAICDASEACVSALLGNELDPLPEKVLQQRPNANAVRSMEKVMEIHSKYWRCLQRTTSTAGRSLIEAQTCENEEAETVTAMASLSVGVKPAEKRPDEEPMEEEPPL
Sequence of Histone deacetylase 2 (Q92769 whole entry): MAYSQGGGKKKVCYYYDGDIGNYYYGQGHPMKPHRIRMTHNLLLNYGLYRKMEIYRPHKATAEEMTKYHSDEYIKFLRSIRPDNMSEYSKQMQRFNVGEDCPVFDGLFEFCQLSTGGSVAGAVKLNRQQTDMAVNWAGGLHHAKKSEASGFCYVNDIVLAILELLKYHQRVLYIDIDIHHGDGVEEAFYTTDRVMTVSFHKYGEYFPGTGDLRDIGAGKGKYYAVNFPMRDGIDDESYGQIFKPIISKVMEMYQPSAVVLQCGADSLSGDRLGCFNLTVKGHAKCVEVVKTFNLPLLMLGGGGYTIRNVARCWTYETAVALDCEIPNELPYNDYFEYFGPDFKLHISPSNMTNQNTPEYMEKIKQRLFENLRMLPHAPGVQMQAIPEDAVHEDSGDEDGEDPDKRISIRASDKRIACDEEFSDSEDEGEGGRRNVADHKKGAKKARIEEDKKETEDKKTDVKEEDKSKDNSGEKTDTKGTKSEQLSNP
Sequence of Polyamine deacetylase HDAC10 (Q969S8 whole entry): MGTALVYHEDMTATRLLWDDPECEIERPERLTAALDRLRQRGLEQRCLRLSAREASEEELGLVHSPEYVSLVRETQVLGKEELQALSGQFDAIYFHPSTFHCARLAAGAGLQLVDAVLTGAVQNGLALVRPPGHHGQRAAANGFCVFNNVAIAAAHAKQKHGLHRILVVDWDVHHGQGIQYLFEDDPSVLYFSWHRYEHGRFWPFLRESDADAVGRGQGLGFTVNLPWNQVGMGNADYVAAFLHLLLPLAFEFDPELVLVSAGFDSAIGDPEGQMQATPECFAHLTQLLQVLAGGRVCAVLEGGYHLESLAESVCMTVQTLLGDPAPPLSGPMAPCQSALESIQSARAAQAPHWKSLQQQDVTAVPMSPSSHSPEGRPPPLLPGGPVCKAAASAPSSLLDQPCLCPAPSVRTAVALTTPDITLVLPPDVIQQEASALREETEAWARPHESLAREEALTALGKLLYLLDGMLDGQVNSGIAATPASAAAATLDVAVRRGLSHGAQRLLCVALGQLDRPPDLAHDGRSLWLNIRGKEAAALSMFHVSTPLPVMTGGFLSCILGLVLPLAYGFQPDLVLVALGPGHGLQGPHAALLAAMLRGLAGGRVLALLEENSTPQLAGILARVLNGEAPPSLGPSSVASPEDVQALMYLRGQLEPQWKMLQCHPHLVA
Sequence of Histone deacetylase 3 (O15379 whole entry): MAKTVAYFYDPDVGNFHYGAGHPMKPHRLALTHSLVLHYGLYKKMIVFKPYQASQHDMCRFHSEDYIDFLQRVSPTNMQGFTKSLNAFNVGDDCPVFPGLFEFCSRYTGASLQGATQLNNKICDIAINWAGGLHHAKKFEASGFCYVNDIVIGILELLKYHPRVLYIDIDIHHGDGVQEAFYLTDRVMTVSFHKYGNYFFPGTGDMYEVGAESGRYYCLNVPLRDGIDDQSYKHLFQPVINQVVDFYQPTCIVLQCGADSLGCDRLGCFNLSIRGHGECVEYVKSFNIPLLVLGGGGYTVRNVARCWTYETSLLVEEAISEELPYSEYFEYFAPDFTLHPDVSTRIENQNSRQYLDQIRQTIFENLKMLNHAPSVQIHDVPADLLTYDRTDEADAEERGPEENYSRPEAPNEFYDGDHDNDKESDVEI

**Q.** With `COc1ccccc1/C=C1\CC(=O)N(CCCCCCC(=O)NO)C1=O` as the molecule, how does the IC50 (Histone deacetylase 1) read?
**A.** Its IC50 is 12.6 nM.

**Q.** What about the IC50 (DU-145 [1]) of the same molecule?
**A.** The IC50 was 160 nM.

**Q.** What about the IC50 (PC-3) of the same molecule?
**A.** Its IC50 is 720 nM.

**Q.** And the IC50 (A549)?
**A.** The IC50 was 1390 nM.

**Q.** What about the IC50 (NCI-H1650) of the same molecule?
**A.** The IC50 was 3560 nM.

**Q.** And the IC50 (MCF7)?
**A.** The IC50 was 350 nM.

**Q.** What about the IC50 (MDA-MB-231) of the same molecule?
**A.** The IC50 was 310 nM.

**Q.** What about the IC50 (HCT-116) of the same molecule?
**A.** The IC50 was 470 nM.

**Q.** What about the IC50 (Histone deacetylase 2) of the same molecule?
**A.** Its IC50 is 14.1 nM.

**Q.** What about the IC50 (Histone deacetylase 3) of the same molecule?
**A.** The IC50 was 20 nM.

**Q.** What about the IC50 (Histone deacetylase 4) of the same molecule?
**A.** The IC50 was > 5000 nM.

**Q.** What about the IC50 (Histone deacetylase 7) of the same molecule?
**A.** Its IC50 is > 5000 nM.

**Q.** And the IC50 (Histone deacetylase 8)?
**A.** Its IC50 is 566 nM.

**Q.** What about the IC50 (Histone deacetylase 9) of the same molecule?
**A.** Its IC50 is > 5000 nM.

**Q.** What about the IC50 [2] of the same molecule?
**A.** Its IC50 is 72 nM.

**Q.** What about the inhibition (DU-145 [3]) of the same molecule?
**A.** The inhibition was “Dose-Dependent Effect”.

**Q.** What about the inhibition at 3.2 µM (DU-145 [4]) of the same molecule?
**A.** The inhibition at 3.2 µM was 100%.

**Q.** What about the Activity (DU-145 [5]) of the same molecule?
**A.** The Activity was “Dose-Dependent Effect”.

**Q.** And the Activity (DU-145 [6])?
**A.** Its Activity is 27.45%.

**Q.** What about the Activity (DU-145 [7]) of the same molecule?
**A.** The Activity was “Dose-Dependent Effect”.

**Q.** What about the Activity (DU-145 [8]) of the same molecule?
**A.** Its Activity is “Active”.

**Q.** What about the half-life [9] of the same molecule?
**A.** Its half-life is 3.12 h.

**Q.** What about the clearance [10] of the same molecule?
**A.** The clearance was 26.2 mL/min/kg.

**Q.** And the Cmax [11]?
**A.** Its Cmax is 852 ng/mL.

**Q.** What about the AUC(0-inf) [12] of the same molecule?
**A.** Its AUC(0-inf) is 3800 ng·h/mL.

**Q.** What about the half-life [13] of the same molecule?
**A.** The half-life was 2.87 h.

**Q.** What about the Cmax [14] of the same molecule?
**A.** The Cmax was 774 ng/mL.

**Q.** And the bioavailability [15]?
**A.** Its bioavailability is 46.5%.

**Q.** And the Activity [16]?
**A.** Its Activity is “Non-Toxic”.

**Q.** And the Activity [17]?
**A.** Its Activity is “Non-Toxic”.

**Q.** What about the Activity [18] of the same molecule?
**A.** Its Activity is “Non-Toxic”.

**Q.** What about the Activity [19] of the same molecule?
**A.** Its Activity is “Non-Toxic”.

**Q.** What about the Activity [20] of the same molecule?
**A.** The Activity was “Non-Toxic”.

**Q.** And the Activity [21]?
**A.** The Activity was “Non-Toxic”.

**Q.** What about the inhibition in vivo at 100 mg/kg (DU-145 [22]) of the same molecule?
**A.** Its inhibition in vivo at 100 mg/kg is 50.9%.

**Q.** And the TGI (DU-145 [23])?
**A.** The TGI was 68%.

**Q.** And the Activity [24]?
**A.** The Activity was “Non-Toxic”.

**Q.** And the Activity [25]?
**A.** Its Activity is “Non-Toxic”.

**Q.** And the inhibition in vivo at 200 mg/kg (DU-145 [26])?
**A.** The inhibition in vivo at 200 mg/kg was 81.3%.

**Q.** And the inhibition in vivo at 100 mg/kg (DU-145 [27])?
**A.** The inhibition in vivo at 100 mg/kg was 71.4%.
